Measured values as given in doi:10.1101/2025.02.03.636334v1 (biorxiv, 2025).
Converted amounts (≈) assume the structure as drawn.

What was measured:
[1] = molecular target: T1, KasA (Mycobacterium tuberculosis, UniProt P9WQD9); experiment: microscale thermophoresis, RED-NHS labelled KasA; type: binding
T1 sequence (P9WQD9 1-416): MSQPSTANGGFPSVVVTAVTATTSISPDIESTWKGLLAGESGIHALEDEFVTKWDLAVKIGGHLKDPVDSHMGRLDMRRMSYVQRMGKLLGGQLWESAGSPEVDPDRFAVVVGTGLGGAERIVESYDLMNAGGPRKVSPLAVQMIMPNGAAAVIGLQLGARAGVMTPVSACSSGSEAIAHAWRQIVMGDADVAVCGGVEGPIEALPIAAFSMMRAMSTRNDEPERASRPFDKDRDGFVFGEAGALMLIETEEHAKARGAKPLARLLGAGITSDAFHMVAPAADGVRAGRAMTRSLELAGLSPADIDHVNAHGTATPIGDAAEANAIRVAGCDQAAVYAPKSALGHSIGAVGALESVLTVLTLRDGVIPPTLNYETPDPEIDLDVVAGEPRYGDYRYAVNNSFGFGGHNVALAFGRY

[2] = molecular target: T1, KasA; experiment: KasA-MabA coupled assay, NADPH at […] nm; type: biochemical; conditions: read-out: % inhibition at 25 μM
[3] = molecular target: T2, MabA (Mycobacterium tuberculosis, UniProt P9WGT3); experiment: biochemical; conditions: read-out: % of control remaining
[4] = tested on: M. tuberculosis H37Rv; experiment: microbe, parasite or virus in culture; conditions: Mycobacterium tuberculosis, 192 h, read-out: Mtb MIC (µM)
[5] = molecular target: T1, KasA; experiment: biochemical; conditions: read-out: % KasA Inhibition at 25 µM Compound
[6] = molecular target: T2, MabA; experiment: MabA NADPH oxidation at […] nm; type: biochemical

T2 sequence (P9WGT3 whole entry): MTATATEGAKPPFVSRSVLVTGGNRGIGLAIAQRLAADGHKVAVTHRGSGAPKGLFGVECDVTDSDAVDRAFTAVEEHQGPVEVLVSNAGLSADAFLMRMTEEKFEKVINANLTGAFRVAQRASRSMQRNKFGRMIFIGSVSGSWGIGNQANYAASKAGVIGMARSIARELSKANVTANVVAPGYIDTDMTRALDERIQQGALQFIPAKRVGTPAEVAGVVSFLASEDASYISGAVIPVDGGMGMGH

| SMILES | Kd [1] [µM] | inhibition at 25 µM [2] [%] | remaining activity at 25 µM [3] [%] | MIC [4] [µM] | inhibition at 25 µM [5] [%] | IC50 [6] [µM] |
| --- | --- | --- | --- | --- | --- | --- |
| O=C(Nc1nc(-c2ccccn2)cs1)c1cc(-c2ccccc2)nc2ccc(Br)cc12 [JSF-5071, 6-bromo-2-phenyl-N-(4-(pyridin-2-yl)thiazol-2-yl)quinoline-4-carboxamide] | 4.78 ± 1.3 | 12.7 ± 4.8 | – | – | – | – |
| O=C(Nc1nc(-c2ccccn2)cs1)c1cc(-c2ccccc2)nc2ccc(Br)cc12 [Z29466477] | – | – | 92.1 ± 16.2 | 0.12 (≈ 0.0585 µg/mL) | 15.3 ± 12.8 | – |
| O=C(Nc1ccc(S(=O)(=O)Nc2cccc(C(F)(F)F)c2)cc1)c1cc2ccccc2oc1=O [Z31753778] | – | – | 97.9 ± 14.6 | 0.78 (≈ 0.381 µg/mL) | 12 ± 8.8 | – |
| O=C(C1=C2SC=C(c3ccccc3)N2CCCC1)c1cc(-c2ccccc2Cl)nc2ccccc12 [Z56802551] | – | – | 104 ± 22.4 | 12 (≈ 5.94 µg/mL) | 15.6 ± 11.1 | – |
| Cc1ccc(-c2cc(C(=O)N3CCC(C(=O)Nc4ccc5c(c4)OCO5)CC3)c3ccccc3n2)cc1 [Z99494139] | – | – | 101 ± 20.4 | 1.5 (≈ 0.74 µg/mL) | 11.5 ± 7 | – |
| O=C(Nc1ccc2c(c1)OCO2)C1CCN(C(=O)c2cc(-c3ccc(F)cc3)nc3ccccc23)CC1 [Z99494149] | – | – | 95.5 ± 15 | 3.1 (≈ 1.54 µg/mL) | 12 ± 8.8 | – |
| O=C(c1cc(-c2ccc(F)cc2)nc2ccccc12)N1CCC(NS(=O)(=O)c2cccs2)CC1 [Z212116604] | – | – | 99.4 ± 15 | 12 (≈ 5.95 µg/mL) | 14.7 ± 9.6 | – |
| O=C(Nc1nc(-c2cccc(C(F)(F)F)c2)cs1)C1CCN(C(=O)c2ccc(F)cc2)CC1 [Z318114792] | – | – | 102 ± 16.8 | 12 (≈ 5.73 µg/mL) | 4.72 ± 3 | – |
| O=C(Nc1ccc(O)cc1)C1CCN(C(=O)c2cccc(Oc3cccc(C(F)(F)F)c3)c2)CC1 [Z979305278] | – | – | 97.8 ± 16.3 | 12 (≈ 5.81 µg/mL) | 31.2 ± 9.3 | – |
| C(=N\Nc1nc(-c2ccccc2)c2ccccc2n1)/c1cccc2cccnc12 [Z1033301210] | – | – | 68.4 ± 16.8 | 12 (≈ 4.51 µg/mL) | 46.7 ± 12.5 | > 100 |
| Clc1ccc(-c2cc(Nc3ccccc3Cl)nc3ccccc23)cc1 [Z1143441182] | – | – | 105 ± 19.7 | 12 (≈ 4.38 µg/mL) | 13.9 ± 12 | – |
| Cc1ccc(-c2cc(-c3c(O)nc4ccccc4c3-c3ccccc3)nc3ccccc23)cc1 [Z1702969146] | – | – | 101 ± 17.6 | 12 (≈ 5.26 µg/mL) | 27.1 ± 8.1 | – |
